Reference: patent US20060052415A1, “N-{2-chloro-4-[(6,7-dimethoxy-4-quinolyl)oxy]phenyl}-n'-(5-methyl-3-isoxazolyl)urea salt in crystalline form” (KIRIN BEER KABUSHIKI KAISHA, priority 2002, published 2006)
“Also recorded” adds a separate entry of the source.

Columns and labels:
[1] = Stability of crystal under high humidity (40° C., 75% RH) conditions; assay type: physicochemical; conditions: stored at 40° C. and 75% RH for 2 weeks, hydrochloride
Description: (§1) X-ray diffraction patterns of crystals were taken using Cu-Kα radiation (40 kV, 40 mA, λ=1.541 angstroms) with a powder X-ray diffraction apparatus (X-ray diffraction RINT DMAX-2000, manufactured by Rigaku Industrial Corporation) (scanning speed: 5 degrees/min, scanning range: 5.000 to 40.000 degrees, filter: Kβ filter). Based on powder X-ray diffraction patterns thus obtained, peak positions and relative intensity (%) were determined for peaks with a relative intensity of not less than 20%.
Stability of Crystal Under High Humidity (40° C., 75% RH) Conditions
(§2) Form I to III crystals of hydrochloride, form I crystal of nitrate, form I and II crystals of sulfate, form I crystal of methanesulfonate, form I and II crystals of p-toluenesulfonate, and form I and II crystals of maleate of N-{2-chloro-4-[(6,7-dimethoxy-4-quinolyl)oxy]phenyl}-N′-(5-methyl-3-isoxazolyl)urea were stored under conditions of 40° C. and 75% RH for 2 weeks. […]

[2] = Stability of crystal under heating (73° C.) conditions; assay type: physicochemical; conditions: stored at 73° C. for 2 weeks, hydrochloride
Description: as §1
Stability of Crystal Under Heating (73° C.) Conditions
as §2, with “at 73°” for “under conditions of 40°”, “C.” for “C. and 75% RH”

[3] = Hygroscopicity of crystal (weight change on storage); assay type: physicochemical; conditions: 40° C. and 75% RH, hydrochloride; for hygroscopicity (level, in words): 2 weeks, based on weight change
Description: Hygroscopicity of Crystal
Form I to III crystals of hydrochloride, form I crystal of nitrate, form I and II crystals of sulfate, form I crystal of methanesulfonate, form I and II crystals of p-toluenesulfonate, and form I and II crystals of maleate of N-{2-chloro-4-[(6,7-dimethoxy-4-quinolyl)oxy]phenyl}-N′-(5-methyl-3-isoxazolyl)urea were stored under conditions of 40° C. and 75% RH for 2 weeks. Before and after the storage, the weight of each crystal was measured to determine a difference in weight between before the storage and after the storage.
For each crystal, the hygroscopicity was evaluated based on the weight change.

[4] = Suspending crystal in aqueous methylcellulose solution (administration solution for rodents); assay type: physicochemical
Excerpt: In the most preferred embodiment of the present invention, the crystal of a salt according to the present invention is form I crystal of N-{2-chloro-4-[(6,7-dimethoxy-4-quinolyl)oxy]phenyl}-N′-(5-methyl-3-isoxazolyl)urea hydrochloride. This form I crystal of hydrochloride has all physicochemical properties that are desired as pharmaceutical preparations for oral administration. The powder X-ray diffraction pattern of form I crystal of hydrochloride is not similar to that of other crystalline forms of hydrochloride (for example, form II crystal and form III crystal). Therefore, the mixing ratio of crystalline forms can be easily determined. […] Therefore, problems with administration are less likely to occur. Also in this respect, form I crystal of hydrochloride is advantageous.

[5] = Stability of crystal against physical stress (grinding in a mortar); assay type: physicochemical; conditions: ground in an agate or porcelain mortar, hydrochloride
Description: as §1
Stability of Crystal Against Physical Stress
Each of form I to III crystals of hydrochloride, form I crystal of nitrate, form I and II crystals of sulfate, form I crystal of methanesulfonate, form I and II crystals of p-toluenesulfonate, and form I and II crystals of maleate of N-{2-chloro-4-[(6,7-dimethoxy-4-quinolyl)oxy]phenyl}-N′-(5-methyl-3-isoxazolyl)urea was ground in a mortar. In grinding each crystal in the mortar, about 1 mg of each crystal sample was placed and ground in an agate mortar or a porcelain mortar. For each sample before and after grinding, a powder X-ray diffraction chart was measured by method 1 to evaluate the stability of the crystal against physical stress.

[6] = system: tumor; conditions: in vivo; cited from earlier work
[7] = listed as form I crystal of hydrochloride
[8] = listed as form III crystal of hydrochloride

For `COc1cc2nccc(Oc3ccc(NC(=O)Nc4cc(C)on4)c(Cl)c3)c2cc1OC.Cl` [Form I crystal of hydrochloride, N-{2-chloro-4-[(6,7-dimethoxy-4-quinolyl)oxy]phenyl}-N′-(5-methyl-3-isoxazolyl)urea hydrochloride], the “stability of crystal under high humidity conditions (change of powder X-ray diffraction chart)” value [1, 7] was “excellent stability”, the “stability of crystal under high temperature conditions (change of powder X-ray diffraction chart)” value [2, 7] was “excellent stability” and the “hygroscopicity (level, in words)” value [3] was “low level of hygroscopicity; also recorded: on a low level”. The “weight change (hygroscopicity) After 1 week” value [3] was 0.01%, the “weight change (hygroscopicity) After 2 weeks” value [3] was 0.00% and the “weight change (hygroscopicity) After 2 days” value [3] was 0.00%. The “formation of gel on suspending” value [4] was “does not undergo a deterioration that results in the formation of gel” and the “stability of crystal against physical stress (powder X-ray diffraction before and after grinding)” value [5, 7] was “excellent stability”.

In the case of `COc1cc2nccc(Oc3ccc(NC(=O)Nc4cc(C)on4)c(Cl)c3)c2cc1OC.Cl` [Form III crystal of hydrochloride, N-{2-chloro-4-[(6,7-dimethoxy-4-quinolyl)oxy]phenyl}-N′-(5-methyl-3-isoxazolyl)urea hydrochloride], the “stability of crystal under high humidity conditions (change of powder X-ray diffraction chart)” value [1, 8] is reported as “converted to form I crystal”, the “stability of crystal under high temperature conditions (change of powder X-ray diffraction chart)” value [2, 8] is reported as “converted to form II crystal” and the “hygroscopicity (level, in words)” value [3] is reported as “highly hygroscopic”. The “weight change (hygroscopicity) After 1 week” value [3] was 1.49%, the “weight change (hygroscopicity) After 2 weeks” value [3] was 1.93% and the “weight change (hygroscopicity) After 2 days” value [3] was 1.06%. For the same compound, the “stability of crystal against physical stress (powder X-ray diffraction before and after grinding)” value [5, 8] was “lowering in peak intensity”.

In the case of `COc1cc2nccc(Oc3ccc(NC(=O)Nc4cc(C)on4)c(Cl)c3)c2cc1OC` [N-{2-chloro-4-[(6,7-dimethoxy-4-quinolyl)oxy]phenyl}-N′-(5-methyl-3-isoxazolyl)urea], the “tumor enhancement inhibitory activity” value [6] is listed as “has tumor enhancement inhibitory activity in vivo”.
